Experiment in all cases: relative viability (nuclei count vs DMSO), 5 days (fraction); higher = more cells survive
Compound in the assay “GW-2580 + Palbociclib”: COC1=CC=C(C=C1)COC2=C(C=C(C=C2)CC3=CN=C(N=C3N)N)OC [GW-2580] + CC(=O)c1c(C)c2cnc(Nc3ccc(N4CCNCC4)cn3)nc2n(C2CCCC2)c1=O [Palbociclib] (partner 0.5 µM)
In short, it runs like this: (§1)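 Relative viability equals treated-well nuclei counts divided by vehicle-well nuclei counts. Counts came from 4× images of lung cancer cell lines grown in 1536-well plates for 5 days after pin-tool dosing on the day after seeding. Dosing used one drug alone or a fixed anchor-drug dose plus five library-drug doses (not always all listed) in √10 steps, and values are medians of duplicate plates.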

Compound in the assay “Fedratinib + Pemetrexed”: Cc1cnc(Nc2ccc(OCCN3CCCC3)cc2)nc1Nc1cccc(S(=O)(=O)NC(C)(C)C)c1 [Fedratinib] + Nc1nc2[nH]cc(CCc3ccc(C(=O)N[C@@H](CCC(=O)O)C(=O)O)cc3)c2c(=O)[nH]1 [Pemetrexed] (partner 0.2 µM)
In short, it runs like this: as §1

Compound in the assay “Fedratinib + Pictilisib”: Cc1cnc(Nc2ccc(OCCN3CCCC3)cc2)nc1Nc1cccc(S(=O)(=O)NC(C)(C)C)c1 [Fedratinib] + CS(=O)(=O)N1CCN(Cc2cc3nc(-c4cccc5[nH]ncc45)nc(N4CCOCC4)c3s2)CC1 [Pictilisib] (partner 1 µM)
The gist of the method:
as §1

Compound in the assay “GW-2580 + Bortezomib”: COC1=CC=C(C=C1)COC2=C(C=C(C=C2)CC3=CN=C(N=C3N)N)OC [GW-2580] + CC(C)C[C@H](NC(=O)[C@H](Cc1ccccc1)NC(=O)c1cnccn1)B(O)O [Bortezomib] (partner 0.002 µM)
In short, it runs like this:
as §1

Compound in the assay “GW-2580 + Crizotinib”: COC1=CC=C(C=C1)COC2=C(C=C(C=C2)CC3=CN=C(N=C3N)N)OC [GW-2580] + C[C@@H](Oc1cc(-c2cnn(C3CCNCC3)c2)cnc1N)c1c(Cl)ccc(F)c1Cl [Crizotinib] (partner 1 µM)
The gist of the method:
as §1

In the case of NCI-H1793, the relative viability in the assay with GW-2580 + Palbociclib (first compound 0.08 µM) is 0.412; with GW-2580 + Palbociclib (first compound 0.8 µM), 0.345; with GW-2580 + Palbociclib (first compound 2.53 µM), 0.28; with GW-2580 + Palbociclib (first compound 8 µM), 0.273; with Fedratinib + Pemetrexed (first compound 0.1 µM), 0.81; in the assay with Fedratinib + Pemetrexed (first compound 0.3162 µM), 0.847. Further, the relative viability in the assay with Fedratinib + Pemetrexed (first compound 1 µM) worked out at 0.724; with Fedratinib + Pictilisib (first compound 0.1 µM), 0.34; with Fedratinib + Pictilisib (first compound 0.3162 µM) it was 0.305; with Fedratinib + Pictilisib (first compound 1 µM), 0.306.

With SW 900, the relative viability with GW-2580 + Palbociclib (first compound 0.08 µM) was determined as 0.593; with GW-2580 + Palbociclib (first compound 0.8 µM), 0.562; in the assay with GW-2580 + Palbociclib (first compound 2.53 µM), 0.593; in the assay with GW-2580 + Palbociclib (first compound 8 µM), 0.567; with Fedratinib + Pemetrexed (first compound 0.1 µM), 0.466; with Fedratinib + Pemetrexed (first compound 0.3162 µM), 0.525. In addition, the relative viability in the assay with Fedratinib + Pemetrexed (first compound 1 µM) is 0.444.

NCI-H596: the relative viability with Fedratinib + Pemetrexed (first compound 0.1 µM) worked out at 0.511; in the assay with Fedratinib + Pemetrexed (first compound 0.3162 µM) it was 0.511; with Fedratinib + Pemetrexed (first compound 1 µM), 0.426; with GW-2580 + Bortezomib (first compound 0.08 µM), 0.938; in the assay with GW-2580 + Bortezomib (first compound 0.8 µM), 1.06; in the assay with GW-2580 + Bortezomib (first compound 2.53 µM), 1.23. The relative viability in the assay with GW-2580 + Bortezomib (first compound 8 µM) was 1.01; with GW-2580 + Crizotinib (first compound 0.08 µM) it was 0.966; with GW-2580 + Crizotinib (first compound 0.8 µM), 0.985; with GW-2580 + Crizotinib (first compound 2.53 µM), 0.912; with GW-2580 + Crizotinib (first compound 8 µM), 1.15; with Fedratinib + Pictilisib (first compound 0.1 µM), 0.342. For the same cell line, the relative viability in the assay with Fedratinib + Pictilisib (first compound 0.3162 µM) worked out at 0.388; in the assay with Fedratinib + Pictilisib (first compound 1 µM), 0.366.

As for NCI-H1563, the relative viability was found to be 0.737 in the assay with Fedratinib + Pemetrexed (first compound 0.1 µM); 0.624 in the assay with Fedratinib + Pemetrexed (first compound 0.3162 µM); 0.824 with Fedratinib + Pemetrexed (first compound 1 µM); 0.8 in the assay with GW-2580 + Bortezomib (first compound 0.08 µM); 0.986 in the assay with GW-2580 + Bortezomib (first compound 0.8 µM); 0.764 with GW-2580 + Bortezomib (first compound 2.53 µM). For the same cell line, the relative viability with GW-2580 + Bortezomib (first compound 8 µM) was 0.842; with GW-2580 + Crizotinib (first compound 0.08 µM), 0.836; in the assay with GW-2580 + Crizotinib (first compound 0.8 µM), 0.936; with GW-2580 + Crizotinib (first compound 2.53 µM), 0.875; with GW-2580 + Crizotinib (first compound 8 µM) it was 0.77; in the assay with Fedratinib + Pictilisib (first compound 0.1 µM), 0.608. Besides, the relative viability in the assay with Fedratinib + Pictilisib (first compound 0.3162 µM) was 0.711; with Fedratinib + Pictilisib (first compound 1 µM), 0.712.

Consider A549, for which the relative viability stood at 0.722 in the assay with GW-2580 + Crizotinib (first compound 0.08 µM); 0.878 in the assay with GW-2580 + Crizotinib (first compound 0.8 µM); 0.737 with GW-2580 + Crizotinib (first compound 2.53 µM); 0.543 with GW-2580 + Crizotinib (first compound 8 µM); 0.531 with Fedratinib + Pictilisib (first compound 0.1 µM); 0.465 in the assay with Fedratinib + Pictilisib (first compound 0.3162 µM). In addition, the relative viability in the assay with Fedratinib + Pictilisib (first compound 1 µM) stood at 0.434.

Turning to NCI-H2342, the relative viability with GW-2580 + Palbociclib (first compound 0.08 µM) was found to be 0.547; with GW-2580 + Palbociclib (first compound 0.8 µM), 0.543; with GW-2580 + Palbociclib (first compound 2.53 µM) it was 0.511; with GW-2580 + Palbociclib (first compound 8 µM), 0.53; with Fedratinib + Pemetrexed (first compound 0.1 µM), 0.801; in the assay with Fedratinib + Pemetrexed (first compound 0.3162 µM), 0.765. Further, the relative viability with Fedratinib + Pemetrexed (first compound 1 µM) stood at 0.775.

In the case of NCI-H2170, the relative viability was found to be 0.408 with GW-2580 + Palbociclib (first compound 0.08 µM); 0.451 with GW-2580 + Palbociclib (first compound 0.8 µM); 0.386 with GW-2580 + Palbociclib (first compound 2.53 µM); 0.373 in the assay with GW-2580 + Palbociclib (first compound 8 µM); 0.284 with Fedratinib + Pemetrexed (first compound 0.1 µM); 0.27 in the assay with Fedratinib + Pemetrexed (first compound 0.3162 µM). The relative viability with Fedratinib + Pemetrexed (first compound 1 µM) stood at 0.253; in the assay with GW-2580 + Crizotinib (first compound 0.08 µM), 1.23; with GW-2580 + Crizotinib (first compound 0.8 µM), 1.33; with GW-2580 + Crizotinib (first compound 2.53 µM), 1.22; with GW-2580 + Crizotinib (first compound 8 µM) it was 1.36; with Fedratinib + Pictilisib (first compound 0.1 µM), 0.266. The relative viability in the assay with Fedratinib + Pictilisib (first compound 0.3162 µM) came out at 0.329; with Fedratinib + Pictilisib (first compound 1 µM), 0.221.

NCI-H522: the relative viability with GW-2580 + Palbociclib (first compound 0.08 µM) is 1.04; with GW-2580 + Palbociclib (first compound 0.8 µM), 1.06; with GW-2580 + Palbociclib (first compound 2.53 µM) it was 0.825; with GW-2580 + Palbociclib (first compound 8 µM), 1.04; in the assay with Fedratinib + Pemetrexed (first compound 0.1 µM) it was 0.767; with Fedratinib + Pemetrexed (first compound 0.3162 µM), 0.951. For the same cell line, in the assay with Fedratinib + Pemetrexed (first compound 1 µM), the relative viability was determined as 0.902.

Turning to NCI-H1395, the relative viability was determined as 0.594 with GW-2580 + Palbociclib (first compound 0.08 µM); 0.603 in the assay with GW-2580 + Palbociclib (first compound 0.8 µM); 0.57 with GW-2580 + Palbociclib (first compound 2.53 µM); 0.613 with GW-2580 + Palbociclib (first compound 8 µM); 0.728 in the assay with Fedratinib + Pemetrexed (first compound 0.1 µM); 0.952 with Fedratinib + Pemetrexed (first compound 0.3162 µM). Further, the relative viability with Fedratinib + Pemetrexed (first compound 1 µM) worked out at 0.665; with Fedratinib + Pictilisib (first compound 0.1 µM) it was 0.515; with Fedratinib + Pictilisib (first compound 0.3162 µM), 0.642; with Fedratinib + Pictilisib (first compound 1 µM) it was 0.469.

Take IA-LM: the relative viability is 0.967 with GW-2580 + Bortezomib (first compound 0.08 µM); 0.574 in the assay with GW-2580 + Bortezomib (first compound 0.8 µM); 0.912 with GW-2580 + Bortezomib (first compound 2.53 µM); 0.865 in the assay with GW-2580 + Bortezomib (first compound 8 µM); 0.962 with GW-2580 + Crizotinib (first compound 0.08 µM); 0.732 in the assay with GW-2580 + Crizotinib (first compound 0.8 µM). The relative viability in the assay with GW-2580 + Crizotinib (first compound 2.53 µM) was determined as 1.02; with GW-2580 + Crizotinib (first compound 8 µM), 0.836; with Fedratinib + Pictilisib (first compound 0.1 µM) it was 0.26; with Fedratinib + Pictilisib (first compound 0.3162 µM), 0.288; in the assay with Fedratinib + Pictilisib (first compound 1 µM), 0.199.

Turning to NCI-H358, the relative viability with GW-2580 + Palbociclib (first compound 0.08 µM) came out at 0.135; in the assay with GW-2580 + Palbociclib (first compound 0.8 µM), 0.147; with GW-2580 + Palbociclib (first compound 2.53 µM), 0.139; with GW-2580 + Palbociclib (first compound 8 µM) it was 0.15; with Fedratinib + Pemetrexed (first compound 0.1 µM), 0.175; with Fedratinib + Pemetrexed (first compound 0.3162 µM) it was 0.155. In addition, the relative viability with Fedratinib + Pemetrexed (first compound 1 µM) is 0.156; with GW-2580 + Crizotinib (first compound 0.08 µM), 0.654; with GW-2580 + Crizotinib (first compound 0.8 µM) it was 0.543; with GW-2580 + Crizotinib (first compound 2.53 µM), 0.554; with GW-2580 + Crizotinib (first compound 8 µM) it was 0.502; with Fedratinib + Pictilisib (first compound 0.1 µM), 0.319. Further, the relative viability stood at 0.395 with Fedratinib + Pictilisib (first compound 0.3162 µM) and 0.26 in the assay with Fedratinib + Pictilisib (first compound 1 µM).

In the case of EBC-1, the relative viability with GW-2580 + Bortezomib (first compound 0.08 µM) came out at 0.609; with GW-2580 + Bortezomib (first compound 0.8 µM), 0.572; in the assay with GW-2580 + Bortezomib (first compound 2.53 µM), 0.492; with GW-2580 + Bortezomib (first compound 8 µM), 0.554; with GW-2580 + Crizotinib (first compound 0.08 µM), 0.205; with GW-2580 + Crizotinib (first compound 0.8 µM), 0.163. The relative viability with GW-2580 + Crizotinib (first compound 2.53 µM) was 0.19; with GW-2580 + Crizotinib (first compound 8 µM), 0.164; with Fedratinib + Pictilisib (first compound 0.1 µM), 0.27; with Fedratinib + Pictilisib (first compound 0.3162 µM), 0.33; with Fedratinib + Pictilisib (first compound 1 µM), 0.251.
